Tests used:
Neutrophil elastase [1] = molecular target: T1, Neutrophil elastase (Homo sapiens, UniProt P08246); experiment: Inhibition of Human leukocyte elastase
T1 sequence (P08246 whole entry): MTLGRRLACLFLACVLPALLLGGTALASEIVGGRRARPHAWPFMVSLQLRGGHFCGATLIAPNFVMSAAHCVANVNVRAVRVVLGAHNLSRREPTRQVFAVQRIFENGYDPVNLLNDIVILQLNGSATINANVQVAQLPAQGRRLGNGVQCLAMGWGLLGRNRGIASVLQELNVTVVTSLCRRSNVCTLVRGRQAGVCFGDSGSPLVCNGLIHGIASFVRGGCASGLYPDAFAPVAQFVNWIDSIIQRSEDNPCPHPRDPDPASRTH

Neutrophil elastase [2] = molecular target: T1, Neutrophil elastase; experiment: Compound was tested for its inhibitory effect against Human leukocyte elastase (HLE)

CC1=C(C(=O)OCc2ccccc2)N2C(=O)C[C@H]2S1 (racemic)
IC50 (Neutrophil elastase [1]): > 20 µM
Ki (Neutrophil elastase [2]): 310 µM
